Laboratory results taken from ChEMBL document CHEMBL1201862, “PubChem BioAssay data set” (2004).
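Each compound was tested at five concentrations against cells in 96-well plates for 48 hours. GI50 = concentration required for 50% inhibition of growth.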 Activity calls are given as the source filed them. No stated cut-off is given here; in the data, active = GI50 up to about 1.1 µM and inactive = higher.

How the values were obtained:
Assay in all cases: DTP human tumour cell line panel, 48 h
KM-20L2 = tested on: KM-20L2
XF498 = tested on: XF498
DMS-114 = tested on: DMS-114
RXF 631 = tested on: RXF 631
DMS-273 = tested on: DMS-273
SNB-78 = tested on: SNB-78
M19-MEL = tested on: M19-MEL
LXFL 529 = tested on: LXFL 529
HOP-18 = tested on: HOP-18

Structure (SMILES)	GI50 (KM-20L2)	GI50 (XF498)	GI50 (DMS-114)	GI50 (RXF 631)	GI50 (DMS-273)	GI50 (SNB-78)	GI50 (M19-MEL)	GI50 (LXFL 529)	GI50 (HOP-18)
c1coc(CNc2[nH]cnc3nncc2-3)c1	> 100 µM (inactive)	> 100 µM (inactive)	44.5 µM (inactive)	> 100 µM (inactive)	> 100 µM (inactive)	> 100 µM (inactive)	> 100 µM (inactive)	> 100 µM (inactive)	
O=c1[nH]ccc2c1ccn2C1CC(O)C(CO)O1 (configuration not stated)			> 100 µM (inactive)	> 100 µM (inactive)	> 100 µM (inactive)	> 100 µM (inactive)	> 100 µM (inactive)	> 100 µM (inactive)	> 100 µM (inactive)
COC(OC)c1cc2c(cc1C(=O)[C@@]13CCC[C@@H]1NC(=O)O3)OCO2		84.5 µM (inactive)	> 100 µM (inactive)		> 100 µM (inactive)	> 100 µM (inactive)	> 100 µM (inactive)		
COc1cc2c(cc1OC)[C@H]1CN3CCC[C@H]3C=C1c1ccc(OC)c(O)c1-2	< 0.0001 µM (active)	< 0.0001 µM (active)	< 0.0001 µM (active)		< 0.0001 µM (active)	< 0.0001 µM (active)	< 0.0001 µM (active)	< 0.0001 µM (active)	< 0.0001 µM (active)
Cn1nc2ccccc2cc1=O	> 100 µM (inactive)	> 100 µM (inactive)	> 100 µM (inactive)	> 100 µM (inactive)	> 100 µM (inactive)	> 100 µM (inactive)	> 100 µM (inactive)		> 100 µM (inactive)
c1ccc2[nH]c(CNc3ccc(C4C[Se]N=N4)cc3)nc2c1 (configuration not stated)			21.8 µM (inactive)		67.1 µM (inactive)		41.3 µM (inactive)	18.7 µM (inactive)	> 100 µM (inactive)
O=C(O)CC[C@H](NC(=O)c1ccc(-n2nc3ccc(=O)cc-3[nH]c2=O)cc1)C(=O)O	> 100 µM (inactive)		> 100 µM (inactive)	> 100 µM (inactive)	> 100 µM (inactive)	> 100 µM (inactive)	> 100 µM (inactive)	> 100 µM (inactive)	> 100 µM (inactive)
O=C1C=C(Nc2ccccc2C(=O)CC(=O)C(=O)Nc2cccc([N+](=O)[O-])c2)c2ccccc2C1=O	> 100 µM (inactive)	19.6 µM (inactive)	18.5 µM (inactive)	> 100 µM (inactive)	31.1 µM (inactive)	49.1 µM (inactive)	4.45 µM (inactive)	32.4 µM (inactive)	
COc1ccc(/C(=N/NC(N)=O)C(c2ccc(OC)cc2)C2C(=O)Oc3ccccc32)cc1 (configuration not stated)	> 100 µM (inactive)	> 100 µM (inactive)	> 100 µM (inactive)	> 100 µM (inactive)	> 100 µM (inactive)	> 100 µM (inactive)	> 100 µM (inactive)	> 100 µM (inactive)	
CCCCOP1(=O)C=C(C)C(=C(Cl)Cl)C(C)=C1 (configuration not stated)	2.31 µM (inactive)	13.6 µM (inactive)	3.48 µM (inactive)	16.9 µM (inactive)	3.63 µM (inactive)	0.925 µM (active)	11.5 µM (inactive)		22.7 µM (inactive)
COC(=O)N/N=C(\C)CC(=O)Nc1ccc(Cl)cc1	> 100 µM (inactive)	> 100 µM (inactive)	> 100 µM (inactive)	> 100 µM (inactive)		> 100 µM (inactive)	> 100 µM (inactive)	> 100 µM (inactive)	
Cc1cc2c(c3c1c1ccccc1n3C)C(=O)C=CC2=O		17.7 µM (inactive)			22.5 µM (inactive)	> 54.1 µM (inactive)		5.6 µM (inactive)	
CC(C)=CC(=O)c1c(C(=O)O)nc2ccccc2[n+]1[O-]	> 100 µM (inactive)		> 100 µM (inactive)	> 100 µM (inactive)	> 100 µM (inactive)	> 100 µM (inactive)	> 100 µM (inactive)	> 100 µM (inactive)	
CC1OC(n2cc(F)c(=O)[nH]c2=O)CCC1=O (configuration not stated)	96.6 µM (inactive)		> 100 µM (inactive)	39.9 µM (inactive)	62.5 µM (inactive)	> 100 µM (inactive)	> 100 µM (inactive)	> 100 µM (inactive)	65.2 µM (inactive)
N#CC(NNC(=O)Cc1ccccc1)c1c(O)ccc2ccccc12 (configuration not stated)	15.8 µM (inactive)		2.08 µM (inactive)		3.68 µM (inactive)	13.6 µM (inactive)	2.71 µM (inactive)		4.36 µM (inactive)
COc1cccc(OC)c1/C=N\N1C(=O)c2ccccc2C1=O	19.2 µM (inactive)	28.6 µM (inactive)	31.6 µM (inactive)	29.4 µM (inactive)	21.1 µM (inactive)	59.4 µM (inactive)	48.4 µM (inactive)	40.7 µM (inactive)	> 100 µM (inactive)
COc1ccc(N2C(=O)C3c4[nH]c5ccccc5c4C4CCC(C(C)(C)C)CC4C3C2=O)cc1OC (configuration not stated)	36.8 µM (inactive)	18.2 µM (inactive)			17.1 µM (inactive)	19.3 µM (inactive)	51.1 µM (inactive)	18.5 µM (inactive)	20.9 µM (inactive)
OC12CC/C(=N/OCc3ccccc3)CC1c1ccccc12 (configuration not stated)	> 100 µM (inactive)		> 100 µM (inactive)		> 100 µM (inactive)	> 100 µM (inactive)	> 100 µM (inactive)	> 100 µM (inactive)	> 100 µM (inactive)
CCOC(=O)c1cc(/C=C/C(C)=C/C(=O)OC)oc1-c1ccccc1	81.5 µM (inactive)	> 100 µM (inactive)	63.5 µM (inactive)		92.5 µM (inactive)		> 100 µM (inactive)		42.9 µM (inactive)
CCn1c2ccccc2c(=O)c2c(OC)ccc(OC)c21	92.5 µM (inactive)	34.1 µM (inactive)		49.1 µM (inactive)	30.8 µM (inactive)		74 µM (inactive)	34 µM (inactive)	
COC(=O)/C(=C/CC(N=C(c1ccccc1)c1ccccc1)C(=O)OC)N=C(c1ccccc1)c1ccccc1 (configuration not stated)		> 100 µM (inactive)	15.1 µM (inactive)		> 100 µM (inactive)		> 100 µM (inactive)	> 100 µM (inactive)	
CC1(C)COC2(OC1)C1=NS(=O)(=O)CC13CCC2C3(C)C (configuration not stated)	> 100 µM (inactive)	> 100 µM (inactive)	> 100 µM (inactive)	> 100 µM (inactive)	> 100 µM (inactive)	> 100 µM (inactive)	> 100 µM (inactive)	> 100 µM (inactive)	> 100 µM (inactive)
CN(C)C(=Nc1nc(N(C)C)s[s+]1)N(C)C	> 100 µM (inactive)	> 100 µM (inactive)	> 100 µM (inactive)	> 100 µM (inactive)	> 100 µM (inactive)		> 100 µM (inactive)	> 100 µM (inactive)	> 100 µM (inactive)
CCCCCCCCCCCCNC1(C)CNCCCNCCNCCCNC1	1.66 µM (inactive)	1.93 µM (inactive)		1.93 µM (inactive)	0.475 µM (active)	1.82 µM (inactive)	1.72 µM (inactive)	1.67 µM (inactive)	1.68 µM (inactive)
Cc1ccc2[nH]c3c(C)c4c(c(C)c3c2c1)CN(C)C=C4	2.18 µM (inactive)	1.25 µM (inactive)		0.931 µM (active)	1.04 µM (active)	0.738 µM (active)		0.377 µM (active)	7.46 µM (inactive)
